The values below come from ChEMBL document CHEMBL5584321, “Chemoenzymatic Synthesis of DNP-Functionalized FGFR1-Binding Peptides as Novel Peptidomimetic Immunotherapeutics for Treating Lung Cancer” (J Med Chem, 2024).

The source made the active and inactive calls. No cut-off for these calls is given here. Where a SMILES comes first, the peptide text is derived from it. The star is where a group is joined. X1 = O=[N+]([O-])c1ccc(OCCOCCOCCOCCOCCOCCN*)c([N+](=O)[O-])c1

Series [1] is described as follows: Toxicity in BALB/c mouse xenografted with human NCI-H1581 cells assessed as cell necrosis in lung at 20 mg/kg,SC administrated once daily for 12 days by hematoxylin and eosin staining based analysis. It counts as organism-based. Particulars: in vivo, 288 h, time 12 day. (In general: In xenograft studies the graft and the host belong to different species.)
In series [2] the test system is L6. Briefly: Antiproliferative activity against FGF2-induced rat L6 cells stably expressing human full-length FGFR1c assessed as inhibition of cell growth incubated for 36 hrs by CCK-8 assay. It counts as functional, cell-based. On the technique in general: Tetrazolium dyes change colour on reduction, which living cells bring about.
A short description of series [3]: Toxicity in BALB/c mouse xenografted with human NCI-H1581 cells assessed as inflammation in liver at 20 mg/kg,SC administrated once daily for 12 days by hematoxylin and eosin staining based analysis. The series is classed as organism-based. Particulars: in vivo, 288 h, time 12 day.
Series [4] is described as follows: Cmax in immunized Sprague-Dawley rat at 1.5 mg/kg,SC administration measured upto 24 hrs by fluorescence based microplate reader assay. Particulars: in vivo. It counts as ADME, organism-based.
Series [5] relates to L6. Put plainly: Binding affinity to human full-length wild type FGFR1c stably expressed in rat L6 cells assessed as fold change in fluorescence intensity at 10 uM by antibody recruiting based flow cytometry relative to Pep1. It counts as cell-based. On the technique in general: Flow cytometry measures light scatter and fluorescence of single cells or particles in a stream.

Series [6] relates to L6. Put plainly: Binding affinity to human full-length wild type FGFR1c stably expressed in rat L6 cells assessed as fluorescence intensity at 10 uM by antibody recruiting based flow cytometry. It counts as cell-based.
Series [7] is described as follows: Tmax in immunized Sprague-Dawley rat at 1.5 mg/kg,SC administration measured upto 24 hrs by fluorescence based microplate reader assay. It counts as ADME, organism-based. Particulars: in vivo.
Series [8] in a line: Renal toxicity in BALB/c mouse xenografted with human NCI-H1581 cells assessed as change in urea level at 20 mg/kg,SC administrated once daily for 12 days. The series is classed as organism-based. Particulars: in vivo, 288 h, time 12 day.
The subject of series [9] is L6. Briefly: Induction of apoptosis in FGF2-induced rat L6 cells stably expressing human full-length FGFR1c assessed as downregulation of BCL-2 expression at 50 uM incubated for 24 hrs by Western blotting analysis. It counts as functional, cell-based.
Series [10] can be described thus: Toxicity in BALB/c mouse xenografted with human NCI-H1581 cells assessed as change in spleen weight at 20 mg/kg,SC administrated once daily for 12 days. The series is classed as organism-based. The conditions noted are these: in vivo, 288 h, time 12 day.
Series [11] is described as follows: AUC in immunized Sprague-Dawley rat at 1.5 mg/kg,SC administration measured upto 24 hrs by fluorescence based microplate reader assay. It counts as ADME, organism-based. The conditions noted are these: in vivo.

For the molecule `CC(C)C[C@H](NC(=O)[C@H](C)NC(=O)[C@@H](NC(=O)[C@H](Cc1ccc(O)cc1)NC(=O)[C@H](Cc1c[nH]c2ccccc12)NC(=O)[C@H](CO)NC(=O)[C@H](CO)NC(=O)[C@H](Cc1ccc(O)cc1)NC(=O)[C@H](CCCCN)NC(=O)[C@H](CCCNC(=N)N)NC(=O)[C@H](CO)NC(=O)[C@H](CCCNC(=N)N)NC(=O)[C@@H](N)Cc1ccc(O)cc1)C(C)C)C(=O)N[C@@H](CCCCN)C(=O)N[C@@H](CCCNC(=N)N)C(=O)N[C@@H](CC(C)C)C(=O)N1CCC[C@H]1C(=O)N[C@@H](CCC(=O)O)C(=O)N[C@H](C(=O)NCC(=O)NCC(=O)NCC(=O)NCCOCCOCCOCCOCCOCCOc1ccc([N+](=O)[O-])cc1[N+](=O)[O-])[C@@H](C)O` (H-YRSRKYSSWYVALKRLPETGGG-X1), the Activity entry in series [1] was “Non-Toxic”; with L6 [2], “Dose-Dependent Effect”; in series [3], “Non-Toxic”; in series [8] it was “Non-Toxic”; in [10] it was “Non-Toxic”. In series [4], this molecule came in with a Cmax of 273 ng/mL. The fold change (FC) in the series with L6 [5] came to 200. Besides, the Flu intensity in the series on L6 [6] is 1.8 10^4No_unit. Further, the Tmax in series [7] was 1.67 h. In the series with L6 [9], the result was Active. Besides, the area under the curve (AUC) at 24 h in [11] was 2600 ng·h/mL.

As usually defined, the Cmax is the highest concentration seen after dosing. Usually Tmax stands for the time from dosing to the highest level. As a reminder, the AUC is the area under the concentration-time curve, a measure of exposure. Lower therefore signals low exposure.
